# Data taken from ChEMBL document CHEMBL4616705, “Computer-Aided Fragment Growing Strategies to Design Dual Inhibitors of Soluble Epoxide Hydrolase and LTA4 Hydrolase” (ACS Med Chem Lett, 2020).
# Legend:
# [1] = target: T1, Bifunctional epoxide hydrolase 2 (Homo sapiens, UniProt P34913); assay: (§1) Inhibition of recombinant human full length sEH (1 to 555 residues) expressed in Escherichia coli BL21 DE3 cells assessed as reduction in 6-methoxynaphthaldehyde formation using PHOME as substrate incubated for 45 mins followed by substrate addition and measured for 45 mins by fluorescence based assay
# T1 sequence (P34913 whole entry): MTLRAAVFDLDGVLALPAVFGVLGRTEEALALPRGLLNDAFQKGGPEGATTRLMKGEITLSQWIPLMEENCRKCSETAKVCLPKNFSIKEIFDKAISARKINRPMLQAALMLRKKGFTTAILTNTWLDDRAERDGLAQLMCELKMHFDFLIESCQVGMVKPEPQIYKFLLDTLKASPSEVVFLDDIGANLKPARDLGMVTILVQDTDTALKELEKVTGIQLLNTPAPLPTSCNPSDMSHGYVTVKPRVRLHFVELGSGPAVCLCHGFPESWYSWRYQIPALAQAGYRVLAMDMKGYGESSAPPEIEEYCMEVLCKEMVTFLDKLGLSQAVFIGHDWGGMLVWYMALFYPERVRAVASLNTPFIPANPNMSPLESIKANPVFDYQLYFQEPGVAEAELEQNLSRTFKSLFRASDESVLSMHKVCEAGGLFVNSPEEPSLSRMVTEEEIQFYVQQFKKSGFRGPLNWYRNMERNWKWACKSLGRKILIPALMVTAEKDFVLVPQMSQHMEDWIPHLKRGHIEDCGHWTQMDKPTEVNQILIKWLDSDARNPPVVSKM
# [2] = target: T2, Bifunctional epoxide hydrolase 2 (Homo sapiens) (UniProt P34913); assay: as §1, with “as substrate at 10 uM incubated for” for “as substrate incubated for”, “based assay relative to control” for “based assay”
# T2 sequence (whole entry): T1 sequence (P34913 whole entry)
# [3] = target: T3, Leukotriene A-4 hydrolase (Homo sapiens, UniProt P09960); assay: (§2) Inhibition of recombinant human full length C-terminal His6-tagged LTA4H expressed in Escherichia coli BL21 DE3 cells assessed as reduction in amino-4-methylcoumarin formation using L-arginine-7-amino-4-methylcoumarin as substrate incubated for 30 mins followed by substrate addition and measured for 30 mins by fluorescence based assay
# T3 sequence (P09960 whole entry): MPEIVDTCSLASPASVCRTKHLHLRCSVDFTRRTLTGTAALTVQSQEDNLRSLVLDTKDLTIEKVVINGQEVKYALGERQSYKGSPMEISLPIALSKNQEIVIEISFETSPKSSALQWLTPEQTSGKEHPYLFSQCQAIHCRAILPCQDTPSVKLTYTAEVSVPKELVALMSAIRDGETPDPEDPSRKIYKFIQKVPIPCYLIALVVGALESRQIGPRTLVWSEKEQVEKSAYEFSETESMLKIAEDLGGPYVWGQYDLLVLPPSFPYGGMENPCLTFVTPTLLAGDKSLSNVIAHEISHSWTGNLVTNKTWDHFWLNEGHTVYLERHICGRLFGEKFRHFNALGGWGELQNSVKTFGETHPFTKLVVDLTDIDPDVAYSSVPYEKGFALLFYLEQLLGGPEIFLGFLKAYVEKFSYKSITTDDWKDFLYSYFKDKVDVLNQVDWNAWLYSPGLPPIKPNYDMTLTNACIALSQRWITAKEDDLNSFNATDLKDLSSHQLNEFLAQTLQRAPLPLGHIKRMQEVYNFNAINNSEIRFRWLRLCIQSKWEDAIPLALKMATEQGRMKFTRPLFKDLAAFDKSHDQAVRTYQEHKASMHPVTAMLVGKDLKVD
# [4] = target: T4, Leukotriene A-4 hydrolase (Homo sapiens) (UniProt P09960); assay: as §2, with “as substrate at 10 uM incubated for” for “as substrate incubated for”, “based assay relative to control” for “based assay”
# T4 sequence (whole entry): T3 sequence (P09960 whole entry)
SMILES,IC50 [1],inhibition [2],IC50 [3],inhibition [4]
O=C(CCc1ccc(OCc2ccccc2)cc1)NCC1CCN(Cc2cccs2)CC1,0.5 µM,–,–,–
O=C(CCc1ccc(OCc2ccccc2)cc1)NCC1CCN(CCCc2ccccc2)CC1,–,7%,18.3 µM,–
O=C(CCc1ccc(OCc2ccccc2)cc1)Nc1ccc(S(=O)(=O)NCC(F)(F)F)cc1,–,6%,–,9%
CCOP(=O)(OCC)c1ccc(NC(=O)CCc2ccc(OCc3ccccc3)cc2)cc1,4.7 µM,–,–,–
O=C(CCc1ccc(OCc2ccccc2)cc1)NCC1CCN(c2cccc(Br)c2)C1 (stereo not given),10 µM,–,–,4%
O=C(CCc1ccc(OCc2ccccc2)cc1)NCC1CCCN(CCc2ccccc2)C1 (stereo not given),15 µM,–,–,–
O=C(CCc1ccc(OCc2ccccc2)cc1)Nc1ccc(CCN2CCOCC2)cc1,1.3 µM,–,–,16%
O=C(CCc1ccc(OCc2ccccc2)cc1)NCCC1CCN(Cc2ccccc2)C1 (stereo not given),28 µM,–,3.2 µM,–
O=C(CCc1ccc(OCc2ccccc2)cc1)Nc1ccc(OCCN2CCCCCC2)cc1,16 µM,–,–,16%
